Like-named read-outs stand apart in the source and are kept apart here.
Experiments:
Assay type in all cases: biochemical
AKT = AKT (Homo sapiens, UniProt P31749); experiment: RBC HotSpot kinase assay (33P-ATP, P81 filter-binding), AKT; settings: read-out: AKT IC50
In short: (§1)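 Compounds were run as single 10-point titrations to give IC50 values in nM. Each kinase was mixed with substrate and cofactors in 20 mM Hepes pH 7.5 reaction buffer with 1% DMSO, then exposed to compound for 20 min. 33P-ATP was added for a 2 h room-temperature reaction, with activity measured by P81 filter binding.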

LATS1 = target: T1, LATS1 (Homo sapiens, UniProt O95835); experiment: RBC HotSpot kinase assay (33P-ATP, P81 filter-binding), LATS1; settings: read-out: LATS1 IC50
T1 sequence (O95835 1-1130): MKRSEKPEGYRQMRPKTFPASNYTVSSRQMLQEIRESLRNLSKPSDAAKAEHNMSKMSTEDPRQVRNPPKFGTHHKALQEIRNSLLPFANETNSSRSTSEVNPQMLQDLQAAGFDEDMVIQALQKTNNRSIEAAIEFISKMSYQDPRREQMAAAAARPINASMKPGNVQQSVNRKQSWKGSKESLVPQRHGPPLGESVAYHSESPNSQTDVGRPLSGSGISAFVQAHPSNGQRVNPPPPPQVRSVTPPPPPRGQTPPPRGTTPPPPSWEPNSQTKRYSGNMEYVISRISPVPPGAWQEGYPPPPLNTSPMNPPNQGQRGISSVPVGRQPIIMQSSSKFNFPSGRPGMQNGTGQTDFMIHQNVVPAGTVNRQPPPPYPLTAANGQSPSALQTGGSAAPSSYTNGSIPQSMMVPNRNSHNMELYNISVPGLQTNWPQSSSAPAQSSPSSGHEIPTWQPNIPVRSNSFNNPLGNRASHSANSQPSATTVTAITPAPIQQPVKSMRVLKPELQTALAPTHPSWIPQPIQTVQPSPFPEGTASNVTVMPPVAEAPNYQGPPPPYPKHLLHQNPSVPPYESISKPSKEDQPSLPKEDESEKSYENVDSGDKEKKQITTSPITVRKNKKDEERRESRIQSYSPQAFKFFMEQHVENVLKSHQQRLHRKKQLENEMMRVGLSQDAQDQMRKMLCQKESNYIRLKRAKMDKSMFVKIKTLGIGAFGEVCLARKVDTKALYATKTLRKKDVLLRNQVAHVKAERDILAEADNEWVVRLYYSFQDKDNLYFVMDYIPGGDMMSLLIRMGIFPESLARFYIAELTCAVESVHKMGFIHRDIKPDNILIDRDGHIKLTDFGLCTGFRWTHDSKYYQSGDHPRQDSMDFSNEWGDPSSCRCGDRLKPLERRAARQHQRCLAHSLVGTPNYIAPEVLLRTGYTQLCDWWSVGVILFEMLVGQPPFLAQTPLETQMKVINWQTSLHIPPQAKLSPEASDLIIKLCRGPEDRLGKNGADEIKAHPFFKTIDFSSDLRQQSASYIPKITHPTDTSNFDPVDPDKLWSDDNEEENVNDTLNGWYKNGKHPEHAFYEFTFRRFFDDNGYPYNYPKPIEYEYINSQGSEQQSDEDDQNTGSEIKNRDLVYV
In short: as §1

LATS2 = target: T2, LATS2 (Homo sapiens, UniProt Q9NRM7); experiment: RBC HotSpot kinase assay (33P-ATP, P81 filter-binding), LATS2; settings: read-out: LATS2 IC50
T2 sequence (Q9NRM7 1-1088): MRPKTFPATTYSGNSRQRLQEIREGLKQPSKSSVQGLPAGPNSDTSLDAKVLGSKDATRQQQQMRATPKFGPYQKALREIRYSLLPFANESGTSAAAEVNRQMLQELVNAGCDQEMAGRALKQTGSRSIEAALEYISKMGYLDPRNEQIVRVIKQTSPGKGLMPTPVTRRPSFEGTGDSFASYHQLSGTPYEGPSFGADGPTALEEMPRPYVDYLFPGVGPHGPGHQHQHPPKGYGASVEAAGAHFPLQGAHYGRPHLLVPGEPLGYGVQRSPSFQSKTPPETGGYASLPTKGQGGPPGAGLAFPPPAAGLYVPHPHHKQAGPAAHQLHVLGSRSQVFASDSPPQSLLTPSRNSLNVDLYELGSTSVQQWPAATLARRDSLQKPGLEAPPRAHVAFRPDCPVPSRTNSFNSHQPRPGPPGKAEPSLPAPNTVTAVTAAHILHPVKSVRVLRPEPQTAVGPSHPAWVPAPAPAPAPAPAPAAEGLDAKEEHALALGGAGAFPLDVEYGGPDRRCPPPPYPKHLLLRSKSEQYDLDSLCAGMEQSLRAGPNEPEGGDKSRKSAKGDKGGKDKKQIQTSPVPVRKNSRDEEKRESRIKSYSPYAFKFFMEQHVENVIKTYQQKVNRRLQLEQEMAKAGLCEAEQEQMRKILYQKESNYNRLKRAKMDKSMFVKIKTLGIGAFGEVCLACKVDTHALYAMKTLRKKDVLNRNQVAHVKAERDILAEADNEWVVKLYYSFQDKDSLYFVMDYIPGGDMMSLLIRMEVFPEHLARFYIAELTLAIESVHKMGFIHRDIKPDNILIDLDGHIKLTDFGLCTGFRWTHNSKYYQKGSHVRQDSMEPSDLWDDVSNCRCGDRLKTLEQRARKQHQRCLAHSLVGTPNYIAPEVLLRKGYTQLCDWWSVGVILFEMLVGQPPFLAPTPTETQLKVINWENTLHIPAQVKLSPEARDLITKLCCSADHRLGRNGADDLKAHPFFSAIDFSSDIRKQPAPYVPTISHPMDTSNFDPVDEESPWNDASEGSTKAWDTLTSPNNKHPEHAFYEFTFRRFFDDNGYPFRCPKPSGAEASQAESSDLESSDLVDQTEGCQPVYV
In short: as §1

[1] = Table 28, biochemical kinase assay
[2] = Table 32, biochemical kinase assay

AKT, sequence (P31749 whole entry): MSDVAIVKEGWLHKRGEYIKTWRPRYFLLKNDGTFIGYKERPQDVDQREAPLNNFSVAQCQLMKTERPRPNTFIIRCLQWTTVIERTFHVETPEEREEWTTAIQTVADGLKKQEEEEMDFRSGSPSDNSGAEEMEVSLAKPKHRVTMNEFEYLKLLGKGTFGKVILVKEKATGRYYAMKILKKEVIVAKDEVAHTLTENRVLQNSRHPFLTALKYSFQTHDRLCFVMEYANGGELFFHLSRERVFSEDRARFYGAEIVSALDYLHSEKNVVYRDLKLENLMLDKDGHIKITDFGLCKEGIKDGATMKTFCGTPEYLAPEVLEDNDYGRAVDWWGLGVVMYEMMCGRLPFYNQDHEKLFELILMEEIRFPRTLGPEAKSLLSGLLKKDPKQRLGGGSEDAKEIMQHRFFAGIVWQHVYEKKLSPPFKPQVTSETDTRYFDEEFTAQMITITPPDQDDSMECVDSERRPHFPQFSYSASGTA

SMILES | IC50 (AKT; [1]) | IC50 (LATS1; [1]) | IC50 (LATS2; [1]) | IC50 (AKT; [2]) | IC50 (LATS1; [2]) | IC50 (LATS2; [2])
OC1(c2c(F)cc(-c3ccnc4[nH]cc(F)c34)cc2F)CC2(CN(C3COC3)C2)C1 [Compound 138, 6-(2,6-difluoro-4-(3-fluoro-1H-pyrrolo[2,3-b]pyridin-4-yl)phenyl)-2-(oxetan-3-yl)-2-azaspiro[3.3]heptan-6-ol] | 2710 nM | 66.4 nM | 117 nM | – | – | –
OC1(c2ccc(-c3ccnc4[nH]cc(Br)c34)cc2)C[C@H]2CC[C@@H](C1)N2 (stereo partly drawn) [Compound 118, (1R,5S)-3-(4-(3-bromo-1H-pyrrolo[2,3-b]pyridin-4-yl)phenyl)-8-azabicyclo[3.2.1]octan-3-ol] | 14 nM | 1.8 nM | 0.9 nM | – | – | –
NCc1ccc(-c2cc(-c3ccnc4[nH]ccc34)ccc2C2CCNCC2)cc1 [Compound 155, (2′-(piperidin-4-yl)-5′-(1H-pyrrolo[2,3-b]pyridin-4-yl)-[1,1′-biphenyl]-4-yl)methanamine] | 68 nM | 4.3 nM | 1 nM | – | – | –
CNCC(=O)N1C[C@@H](C)[C@](O)(c2c(C)cc(-c3ccnc4[nH]cc(F)c34)cc2F)[C@@H](C)C1 [Compound 67, 1-((3S,4s,5R)-4-(2-fluoro-4-(3-fluoro-1H-pyrrolo[2,3-b]pyridin-4-yl)-6-methylphenyl)-4-hydroxy-3,5-dimethylpiperidin-1-yl)-2-(methylamino) ethan-1-one] | 577 nM | 8.7 nM | 2.8 nM | – | – | –
C=C(C)c1c[nH]c2nccc(-c3ccc(CN)c(-c4ccccc4)c3)c12 [Compound 224, (5-(3-(prop-1-en-2-yl)-1H-pyrrolo[2,3-b]pyridin-4-yl)-[1,1′-biphenyl]-2-yl)methanamine] | 1150 nM | 73 nM | 35 nM | – | – | –
C[C@@H]1CN(C(=O)[C@@H]2CCCN2)C[C@H](C)C1(O)c1c(F)cc(-c2ccnc3[nH]cc(F)c23)cc1F (stereo partly drawn) [Compound 84, 4-(4-((3S,5R)-1-(L-prolyl)-4-hydroxy-3,5-dimethylpiperidin-4-yl)-3,5-difluorophenyl)-3-fluoro-1H-pyrrolo[2,3-b]pyridine] | 1470 nM | 21.6 nM | 10.3 nM | – | – | –
C[C@@H]1CN(Cc2ccccc2)C[C@H](C)[C@@]1(O)c1c(F)cc(-c2ccnc3[nH]cc(F)c23)cc1F [Compound 93, (3S,4s,5R)-1-benzyl-4-(2,6-difluoro-4-(3-fluoro-1H-pyrrolo[2,3-b]pyridin-4-yl)phenyl)-3,5-dimethylpiperidin-4-ol] | 2090 nM | 10.6 nM | 7.7 nM | – | – | –
Cc1cc(-c2ccnc3[nH]ccc23)ncc1CN [Compound 217, (4-methyl-6-(1H-pyrrolo[2,3-b]pyridin-4-yl)pyridin-3-yl)methanamine] | 3160 nM | 8.2 nM | 12 nM | – | – | –
Fc1c[nH]c2nccc(-c3ccc(C4(C(F)(F)F)CCNCC4)cc3Cl)c12 [Compound 197, 4-(2-chloro-4-(4-(trifluoromethyl)piperidin-4-yl)phenyl)-3-fluoro-1H-pyrrolo[2,3-b]pyridine] | 85 nM | 424 nM | 195 nM | – | – | –
CCOc1cc(-c2ccnc3[nH]ccc23)ccc1CN [Compound 269, (2-ethoxy-4-(1H-pyrrolo[2,3-b]pyridin-4-yl)phenyl) methanamine] | 789 nM | 40 nM | 36 nM | – | – | –
CC(=O)NCC(O)(c1ccc(Cl)cc1)c1ccc(-c2ccnc3[nH]ccc23)cc1 (stereo not drawn) [Compound 1014, N-(2-(4-(1H-pyrrolo[2,3-b]pyridin-4-yl)phenyl)-2-(4-chlorophenyl)-2-hydroxyethyl)acetamide] | – | – | – | 17.2 nM | 3.7 nM | 5.1 nM
Cc1cc2c(-c3ccc(CN)cc3)ccnc2[nH]1 [Compound 251, (4-(2-methyl-1H-pyrrolo[2,3-b]pyridin-4-yl)phenyl) methanamine] | > 10000 nM | 893 nM | 389 nM | – | – | –
OC1(c2ccc(-c3ccnc4[nH]cc(Br)c34)cc2)CCNCC1 [Compound 117, 4-(4-(3-bromo-1H-pyrrolo[2,3-b]pyridin-4-yl)phenyl)piperidin-4-ol] | 240 nM | 4.2 nM | 3.2 nM | – | – | –
C[C@@H]1CN(C(=O)CN(C)C)C[C@H](C)C1(O)c1c(F)cc(-c2ccnc3[nH]cc(F)c23)cc1F (stereo partly drawn) [Compound 80, 1-((3S,5R)-4-(2,6-difluoro-4-(3-fluoro-1H-pyrrolo[2,3-b]pyridin-4-yl)phenyl)-4-hydroxy-3,5-dimethylpiperidin-1-yl)-2-(dimethylamino) ethan-1-one] | 700 nM | 12.3 nM | 12.8 nM | – | – | –
c1cc(-c2ccc(C3CCNCC3)nc2)c2cc[nH]c2n1 [Compound 178, 4-(6-(piperidin-4-yl)pyridin-3-yl)-1H-pyrrolo[2,3-b]pyridine] | 640 nM | 63 nM | 71 nM | – | – | –
CC(C)(N)c1ccc(-c2ccnc3[nH]ccc23)cc1 [Compound 226, 2-(4-(1H-pyrrolo[2,3-b]pyridin-4-yl)phenyl)propan-2-amine] | 734 nM | 25.4 nM | 1.2 nM | – | – | –
CC(C)(O)C#Cc1cc(-c2ccnc3[nH]ccc23)ccc1CN [Compound 244, 4-(2-(aminomethyl)-5-(1H-pyrrolo[2,3-b]pyridin-4-yl)phenyl)-2-methylbut-3-yn-2-ol] | 1250 nM | 20 nM | 28 nM | – | – | –
CC(C)N1C[C@@H](C)[C@](O)(c2c(F)cc(-c3ccnc4[nH]cc(F)c34)cc2F)[C@@H](C)C1 [Compound 47, (3R,4s,5S)-4-(2,6-difluoro-4-(3-fluoro-1H-pyrrolo[2,3-b]pyridin-4-yl)phenyl)-1-isopropyl-3,5-dimethylpiperidin-4-ol] | 449 nM | 4.7 nM | 11.2 nM | – | – | –
c1cc(-c2ccc(C3CCNCC3)cc2)c2cc[nH]c2n1 [Compound 188, 4-(4-(piperidin-4-yl)phenyl)-1H-pyrrolo[2,3-b]pyridine] | 2200 nM | 70 nM | 75 nM | – | – | –
c1cc(-c2ccc3c(c2)CNC3)c2cc[nH]c2n1 [Compound 265, 4-(isoindolin-5-yl)-1H-pyrrolo[2,3-b]pyridine] | 517 nM | 14 nM | 13 nM | – | – | –

— patent US20250361230A1, “LATS Inhibitors and Uses Thereof” (The USA, as Represented by the Secretary, Dept. of Heath …, priority 2022, published 2025)
